This is an account of results in PubChem BioAssay (NCI).

“And” between values parts separate entries of the source, which are not always exact repeats. Equal values may be shown once.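 A five-concentration, 48-hour dose response in 96-well plates underlies each endpoint, interpolated linearly between surrounding concentrations. Abbreviation: GI50, concentration required for 50% inhibition of growth. TGI: concentration producing complete growth inhibition.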

The test system of this test is MDA-MB-468 breast. Put plainly: NCI tumour cell line growth inhibition, 48 h.
As to `CCCCOc1ccc(S(=O)(=O)N2CCN(c3nccc(N4CCOCC4)n3)CC2)cc1`, the GI50 was 0.456 µM and the TGI stood at 2.53 µM. As to `O=c1oc2ccc(Cl)cc2c(=O)n1-c1ccc(F)cc1F`, the GI50 was 1.98 µM and the TGI amounted to 5.71 µM. The corresponding values for `CCCCc1n(Cc2ccc3ccccc3n2)cc[n+]1Cc1ccc2ccccc2n1` are 0.244 µM and 1.64 µM. The corresponding values for `C/C(CC(C)(C)N1CC1)=N\NC(=O)Nc1cccc2ccccc12` are 1.92 µM and 4.61 µM. In the case of `CCCS(=O)(=O)Nc1cccc(Nc2ncnc3cc(NC(=O)CCl)ccc23)c1Cl`, the GI50 was 3.16 µM and the TGI came out at 8.52 µM. On to `COc1cc2c(cc1O)c(=O)n(CCN(C)C)c1c3cc4c(cc3ncc21)OCO4`, for which the GI50 is less than 0.01 µM and the TGI was 0.014 µM. The corresponding values for `COc1c(O)cc2c(c1OC)-c1ccc(SC)c(=O)cc1C(NC(C)=O)CC2` (stereo not drawn) are 3.02 µM and more than 100 µM. Regarding `CCOC(=O)Nc1ccc2c(c1)C(=O)N(CC)c1ccccc1O2`, the GI50 was 0.201 µM. As to `COc1ccc(C2CC(c3ccc(OC)cc3O)=NN2c2ccc(S(N)(=O)=O)cc2)cc1` (stereo not drawn), the GI50 was 22.3 µM and the TGI is more than 100 µM. The matching figures for `CC(=O)Nc1ccc(OC(C)=O)cc1`: less than 0.01 µM and less than 0.101 µM. The corresponding values for `COc1cc(NS(C)(=O)=O)ccc1Cc1c2ccccc2nc2ccccc12` are 0.31 µM and 1.81 µM. Turning to `S=C1SCN(Cc2ccccc2)CN1Cc1ccccc1`, the GI50 is 1.2 µM and the TGI worked out at 17.1 µM. The matching figures for `Cc1ccc(-c2nc(/C=N/Nc3cc(C)nc4ccc(Br)cc34)c(C)o2)cc1`: 1.95 µM and 3.87 µM. Take `O=C(Nc1cn[nH]c1-c1nc2ccc(CN3CCOCC3)cc2[nH]1)NC1CC1`: the GI50 is 0.0355 µM and 0.207 µM; the TGI was 1.67 µM and 9.37 µM.

Take `CC(C)=Cc1cccc2[nH]c(O)c(N=Nc3ccc(S(N)(=O)=O)cc3)c12`: the GI50 was more than 5.22 µM and the TGI was more than 25 µM. The corresponding values for `O=C(c1ccccc1)C1OC1C(=O)c1ccccc1` (stereo not drawn) are 1.71 µM and 6.72 µM. Take `COC(=O)C1=C(C(=O)ON)[C@@H]2C=C[C@@]1([C@@H](Cc1ccccc1)Nc1ccccc1)O2`: the GI50 was 1.48 µM and the TGI turned out to be 2.97 µM. The corresponding values for `O=C(Nc1n[nH]c2nc(-c3ccc(O)cc3)c(Br)cc12)C1CC1` are 3.93 µM and 8.79 µM. As to `COc1ccc([C@@H]2[C@@H](O)C(=O)N2c2cc(OC)c(OC)c(OC)c2)cc1Cl`, the GI50 is less than 0.0141 µM and the TGI is more than 35.9 µM.

`O=C1c2ccccc2C(=O)c2c1oc1c2c(=O)[nH]c2ccc(Cl)cc21`: the GI50 was 0.249 µM and the TGI is 0.868 µM. The corresponding values for `CCn1c(SCC(=O)Nc2cc(C(F)(F)F)ccc2Cl)nc2ccccc2c1=O` are 14 µM and more than 100 µM. Consider `C#Cc1cccc(NC(=O)c2cccc(NC(=O)CCl)c2)c1`, for which the GI50 was 17.4 µM and the TGI came to 52.7 µM.

In the case of `O=[N+]([O-])c1ccc(N=Nc2c(Cl)cc(O)cc2Cl)cc1`, the GI50 is 0.772 µM and the TGI is 5.81 µM.

Regarding `CC[C@]12C=CCN3CC[C@@]4(c5ccc(OC)cc5N(C)[C@H]4[C@@](O)(C(=O)OC)[C@@H]1OC(=O)CCC(=O)O[C@H]1CC[C@H]4[C@@H]5CC[C@H]6CC(=O)CC[C@]6(C)[C@H]5CC[C@]14C)[C@@H]32`, the GI50 is 3.13 µM and the TGI was more than 100 µM. The corresponding values for `O=C1/C(=C/c2ccc(F)cc2)CN(C(=O)C(Cl)Cl)C/C1=C\c1ccc(F)cc1` are 0.203 µM and 0.48 µM.

For the molecule `Fc1ccc(-c2ncn(CCCN3CCOCC3)c2-c2ccncc2)cc1`, the GI50 is more than 25 µM and the TGI was more than 25 µM. Take `O=C(CCCC(=O)N/N=C/c1cc(Cl)ccc1O)N/N=C\c1cc(Cl)ccc1O`: the GI50 is 2.22 µM and the TGI was 9.3 µM. The matching figures for `O=C1c2cc3c(cc2-c2c1c1ccc(F)cc1c(=O)n2C[C@H](O)[C@H](O)[C@H](O)CO)OCO3`: 0.0646 µM and 0.213 µM.

For the molecule `O=c1cc(-c2ccccc2)oc2c1ccc1ccccc12`, the GI50 was 23.6 µM and the TGI worked out at 95.4 µM. The matching figures for `COc1ccc2nc3c(cc2c1)C(=O)CC(c1ccccc1)C3` (stereo not drawn): 4.08 µM and more than 100 µM. The corresponding values for `CC1=C2[C@@H](CC1)[C@]1(C)O[C@@](C(C)C)(C[C@H]1OC(=O)CO)[C@H]2OC(=O)CCCc1ccccc1` are 12.4 µM and 26.3 µM. The matching figures for `CCOC(=O)c1c2c(n3ccc(NC(=O)CCN4CCCCC4)cc13)C(=O)c1ncccc1C2=O`: 1.76 µM and 3.39 µM.

As to `CC[C@H]1CCC/C=C/[C@@H]2C[C@H](O)C[C@H]2[C@H](O)/C=C/C(=O)O1`, the TGI is 0.0167 µM. As to `COc1ccc(-c2cc(-c3ccc(OC)cc3)nc(NCCCNc3ccnc4cc(Cl)ccc34)n2)cc1`, the GI50 is 1.27 µM and the TGI amounted to 2.79 µM. Regarding `COc1ccc(CNCCCN2C(=O)c3ccc4c5c(ccc(c35)C2=O)C(=O)N(CCCNCc2ccc(OC)c(OC)c2OC)C4=O)c(OC)c1OC`, the GI50 was 0.0793 µM and the TGI turned out to be 0.151 µM. In the case of `CCN1C(=O)N(CC)C2C1NN=c1s/c(=C\c3ccc(C(F)(F)F)cc3)c(=O)n12` (stereo not drawn), the GI50 was 0.318 µM and the TGI was determined as 24.2 µM. Consider `COc1ccc(C2=NN(C(C)=O)C(c3ccc(Oc4ccnc5cc(Cl)ccc45)c(OC)c3)C2)cc1` (stereo not drawn), for which the GI50 is 7.43 µM and the TGI was 65.1 µM.

Turning to `Cc1c[nH]c(=O)n(Cc2nnc(CCC(=O)c3nc4ccccc4[nH]3)o2)c1=O`, the GI50 is 0.156 µM and the TGI came out at 0.553 µM. Take `CCN(CC)CCn1c(=O)c2cc(OC)c(OC)cc2c2ccc3cc4c(cc3c21)OCO4`: the GI50 is 0.84 µM and the TGI turned out to be 19.8 µM. Take `CCc1cccc(NC(=O)Nc2ccc(Oc3ccc4nc(NC(=O)OC)[nH]c4c3)cc2)c1`: the GI50 was 0.0751 µM and the TGI amounted to 2.96 µM.
